# Values quoted from earlier work as cited in article PMC10891214, “Effects of food and ethnicity on the pharmacokinetics of venadaparib, a next-generation PARP inhibitor, in healthy Korean, Caucasian, and Chinese male subjects” (Investigational New Drugs, 2023).
# Test system: patient-derived xenograft
# Parameters: method as in PMID 36808277
# Settings: patient-derived xenograft mouse model; cited from earlier work
smiles,measurement,value
"O=C(c1cc(Cc2n[nH]c(=O)c3ccccc23)ccc1F)N1CCN(C(=O)C2CC2)CC1 [olaparib, reference compound]",Tumor growth inhibition rate,118.2%
